Measurements from patent US20050222267A1, “Solution based methacholine formulations” (priority 2004, published 2005).
Where two headings read alike, the source gives them in different places.

Tests used:
[1] = cited from earlier work
[2] = Terminal steam sterilisation (Example 3): recovery (product potency); assay type: physicochemical; conditions: 20 L batches at 16 mg/ml and 0.25 mg/ml without buffer; conventional terminal steam sterilisation
Description: The influence of terminal steam sterilisation on the chemical properties of the methacholine drug product was determined, specifically in terms of the influence of heat on the product potency and impurity levels within the formulations.
[…] A formulation having a relatively high concentration of methacholine was used so that any changes in chemical properties were readily apparent.
The procedure described below was used for performing the high pressure liquid chromatography (HPLC) assay analysis of methacholine chloride in solution.

[3] = cited from earlier work; remark: listed apart in the source

SMILES: CC(=O)OC(C)C[N+](C)(C)C (centres unmarked) [methacholine, methacholine chloride]
- pH of the saline solution ([1]; methacholine 0.39 mg/ml in saline): 3.9
- pH of the saline solution ([1]; methacholine 50 mg/ml in saline): 2.7
- stability to terminal steam sterilisation [2]: did not withstand the high temperatures
- decomposition by hydrolysis ([3]; pH of the solution above 6): rapidly decompose
- time stable in solution ([3]; solutions of >0.3 mg/ml, stored at 4° C.): at least five
